Laboratory results published in publication PMC7894860, “Molecular dynamics investigation of the interaction between Colletotrichum capsici cutinase and berberine suggested a mechanism for reduced enzyme activity” (PLoS ONE, 2021).

Tests used:
[1] = biological target: T1, cutinase from Colletotrichum capsici (Colletotrichum truncatum, UniProt P10951); assay: turbidimetric hydrolysis assay (OD630); assay type: biochemical; conditions: 30°C; substrate emulsion in 25 mM potassium phosphate pH 8.0, 0.5% gum arabic
T1 construct: gene CUTA; purchased recombinant protein

[2] = biological target: T1, cutinase from Colletotrichum capsici; assay: turbidimetric ester hydrolysis assay (OD630); assay type: biochemical; conditions: read-out: relative activity at 500 μg/ml berberine

T1 sequence (P10951 17-228): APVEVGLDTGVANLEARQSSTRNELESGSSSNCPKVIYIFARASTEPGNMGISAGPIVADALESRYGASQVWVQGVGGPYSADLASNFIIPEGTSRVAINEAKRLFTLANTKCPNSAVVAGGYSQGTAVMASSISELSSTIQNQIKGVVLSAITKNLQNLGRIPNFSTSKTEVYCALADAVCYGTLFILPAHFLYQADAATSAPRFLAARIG

SMILES	turbidimetric hydrolysis assay (OD630) [1]	activity at 500 µg/mL [2] [%]
CCCCCCCC(=O)OCC(COC(=O)CCCCCCC)OC(=O)CCCCCCC [Glyceryl trioctanoate]	larger reduced enzyme activities for longer chain substrates glyceryl trioctanoate and isopropyl myristate	
CCCC(=O)OCC(COC(=O)CCC)OC(=O)CCC [Tributyrin]	For short chain substrate tributyrin, berberine conferred slight decrease of relative activity	
COc1ccc2cc3[n+](cc2c1OC)CCc1cc2c(cc1-3)OCO2 [berberine]		78
